{"source": "patent US4440932A", "about": "“7β-Arylalkyl-7α-methyl-6-oxo or 6α-hydroxy-3-methoxy or 3-hydroxy-4,5α-epoxy-17-methyl or 17-cycloalkyl-methylmorphinans” (Miles Laboratories, Inc., priority 1982, dated 1984)", "note": "Where “and” joins values, the source holds several entries; their conditions need not be identical. Equal entries are not always repeated."}
{"test_system": "mice", "assay": "acetic acid induced writhing test (analgesic effects in mice, subcutaneous)", "format": "in vivo, mice (male CD-1)", "settings": "Mus musculus, sc, acetic acid i.p. 15 min post drug, writhes counted over 20 min, read-out: ED50 (dose required to reduce the number of writhes by 50%)", "protocol": "Analgesic effects of the test compounds were determined in mice by use of the acetic acid induced writhing test described by B. A. Whittle, Brit. J. Pharmacol., 22:246 (1964). In this test, at least 3 groups of 5 male CD-1 mice each were given subcutaneous doses of the test drug dissolved in distilled water. In all cases, 0.4 ml of a 0.5% v/v acetic acid in distilled water solution was administered intraperitoneally 15 min. post drug. The number of writhes in a 20 min. interval beginning 5 min. after the acetic acid injection were determined and compared with the number of writhes in a control group which had received only acetic acid.\nPercent inhibition of writhing was calculated as: [formula]\nThe ED50 dose, i.e., the dose required to reduce the number of writhes by 50%, was determined graphically from a plot of % inhibition as a probit verus log dose. Confidence limits of 95% were calculated on the basis of those results falling in the range 16-84% inhibition. See Lichtfield, J. T. and Wilcoxon, F., J. Pharmacol. Exp. Ther., 96, 99-113 (1949)."}
{"compound": "COc1ccc2c3c1O[C@H]1[C@@H](O)[C@](C)(CCc4ccccc4)C[C@H]4[C@@H](C2)N(CC2CCC2)CC[C@@]341", "note": "[BBd]", "ED50": "1 µmol/kg and 0.51 mg/kg"}
{"compound": "COc1ccc2c3c1O[C@H]1[C@@H](O)[C@](C)(CCCCc4ccccc4)C[C@H]4[C@@H](C2)N(CC2CCC2)CC[C@@]341", "note": "[BBf]", "ED50": "11.3 µmol/kg and 6.1 mg/kg"}
{"compound": "COc1ccc2c3c1O[C@H]1[C@@H](O)[C@](C)(CCCCc4ccccc4)C[C@H]4[C@@H](C2)N(C)CC[C@@]341", "note": "[BMf, 7α,17-Dimethyl-4,5α-epoxy-3-methoxy-7β-(4-phenylbutyl)morphinan-6α-ol]", "ED50": "0.049 µmol/kg and 0.023 mg/kg"}
{"compound": "COc1ccc2c3c1O[C@H]1[C@@H](O)[C@](C)(CCCCc4ccccc4)C[C@H]4[C@@H](C2)N(CC2CC2)CC[C@@]341", "note": "[BPf]", "ED50": "0.5 µmol/kg and 0.26 mg/kg"}
{"compound": "COc1ccc2c3c1O[C@H]1C(=O)[C@](C)(CCc4ccccc4)C[C@H]4[C@@H](C2)N(CC2CCC2)CC[C@]314", "note": "[CBd]", "ED50": "0.01 µmol/kg and 0.011 mg/kg"}
{"compound": "COc1ccc2c3c1O[C@H]1C(=O)[C@](C)(CCCCc4ccccc4)C[C@H]4[C@@H](C2)N(CC2CCC2)CC[C@]314", "note": "[CBf]", "ED50": "5.6 µmol/kg and 2.8 mg/kg"}
{"compound": "COc1ccc2c3c1O[C@H]1C(=O)[C@](C)(CCCCc4ccccc4)C[C@H]4[C@@H](C2)N(C)CC[C@]314", "note": "[CMf, 7α,17-Dimethyl-4,5α-epoxy-3-methoxy-7β-(4-phenylbutyl)morphinan-6-one]", "ED50": "0.023 µmol/kg and 0.011 mg/kg"}
{"compound": "COc1ccc2c3c1O[C@H]1C(=O)[C@](C)(CCCCc4ccccc4)C[C@H]4[C@@H](C2)N(CC2CC2)CC[C@]314", "note": "[CPf]", "ED50": "2 µmol/kg and 1.1 mg/kg"}
{"compound": "C[C@@]1(CCc2ccccc2)C[C@H]2[C@H]3Cc4ccc(O)c5c4[C@@]2(CCN3CC2CCC2)[C@@H](O5)C1=O", "note": "[DBd]", "ED50": "0.04 µmol/kg and 0.021 mg/kg"}
{"compound": "C[C@@]1(CCCCc2ccccc2)C[C@H]2[C@H]3Cc4ccc(O)c5c4[C@@]2(CCN3CC2CCC2)[C@@H](O5)C1=O", "note": "[DBf]", "ED50": "0.17 µmol/kg and 0.08 mg/kg"}
{"compound": "CN1CC[C@]23c4c5ccc(O)c4O[C@H]2C(=O)[C@](C)(CCCCc2ccccc2)C[C@H]3[C@H]1C5", "note": "[DMf, 7α,17-Dimethyl-4,5α-epoxy-3-hydroxy-7β-(4-phenylbutyl)morphinan-6-one]", "ED50": "0.01 µmol/kg and 0.0048 mg/kg"}
{"compound": "C[C@@]1(CCCCc2ccccc2)C[C@H]2[C@H]3Cc4ccc(O)c5c4[C@@]2(CCN3CC2CC2)[C@@H](O5)C1=O", "note": "[DPf]", "ED50": "0.11 µmol/kg and 0.07 mg/kg"}
